According to patent US20260083851A1 (AVILAR THERAPEUTICS, INC., priority 2022, published 2026):
Where two headings read alike, the source gives them in different places.

Tests used:
HepG2 cells = assay: Cellular uptake assay (high-content imaging); type: cell-based, human; conditions: 100 nM AF488-labeled antibody, 6 hours at 37° C., the 25th table, read-out: Uptake EC50
Description: The cellular uptake assay is designed to measure compound-mediated cellular uptake of fluorescently labeled antibody following ternary complex formation with the ASGPR receptor and endocytosis of the entire complex into cells. The optimal concentration of compound will result in the maximum number of cells with intracellular antibody and is represented as the peak ratio of antibody-positive cells over the total number of cells. As with the ternary complex formation assay, too much or too little compound will result in suboptimal complex formation and fewer cells will have measurable intracellular fluorescence.
Human IgG (Sigma-Aldrich, 14506) was covalently labeled with Alexa Fluor 488 using the Alexa Fluor™ 488 Protein Labeling Kit (Thermo Fisher, A10235) following the manufacturer's instructions. HepG2 cells were plated in DMEM supplemented with 10% FBS at 5,000 cells per well in a 96-well microtiter plate and incubated for approximately 18 hours at 37° C./5% CO2. For studies using human IgG, 100 nM AF488-labeled human IgG antibodies and serial dilutions of IgG-based degrader (0.1% DMSO final concentration) were added to the cells and the mixture was incubated at 37° C. for 6 hours. For studies using DNP, 100 nM AF488-labeled DNP antibodies and serial dilutions of DNP-based degrader (0.1% DMSO final concentration) were added to the cells and the mixture was incubated at 37° C. for 6 hours. HepG2 cells were fixed in 100% methanol at −20° C. for 20 min, washed 3× with PBS, then stained with DAPI (Thermo, Cat #H3570). HepG2 cells were imaged for DAPI and Alexa Fluor 488 using the Operetta CLS, high-content analysis system (PerkinElmer). Data is presented as the ratio of the number of cells positive for hIgG or DNP (AF-488 fluorescence) over the total cell number (measured by DAPI).

IgG = IgG SPR binding; conditions: second table, read-out: IgG KD
ASGPR = biological target: T1, ASGPR (Homo sapiens, UniProt P07306); assay: ASGPR SPR binding
T1 construct: biotin (biotinylated)
T1 sequence (P07306 1-291): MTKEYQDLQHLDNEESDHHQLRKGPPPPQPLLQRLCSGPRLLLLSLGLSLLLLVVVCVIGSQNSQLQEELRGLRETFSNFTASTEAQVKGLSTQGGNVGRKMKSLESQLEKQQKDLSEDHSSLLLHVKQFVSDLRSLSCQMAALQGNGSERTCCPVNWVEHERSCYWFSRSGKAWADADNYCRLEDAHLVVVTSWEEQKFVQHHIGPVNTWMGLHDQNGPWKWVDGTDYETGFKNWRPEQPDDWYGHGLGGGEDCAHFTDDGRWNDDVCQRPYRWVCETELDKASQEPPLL

[1] = biological target: T2, ASGPR receptor on HepG2 cells (ternary complex with AF488-labeled antibody) (Homo sapiens, UniProt P07306); assay: Ternary complex formation assay (flow cytometry, cell-associated AF488 fluorescence); type: cell-based
T2 construct: host or cells: HepG2
T2 sequence (P07306 1-291): T1 sequence (P07306 1-291)
T2 sequence (P07307 1-311 partner): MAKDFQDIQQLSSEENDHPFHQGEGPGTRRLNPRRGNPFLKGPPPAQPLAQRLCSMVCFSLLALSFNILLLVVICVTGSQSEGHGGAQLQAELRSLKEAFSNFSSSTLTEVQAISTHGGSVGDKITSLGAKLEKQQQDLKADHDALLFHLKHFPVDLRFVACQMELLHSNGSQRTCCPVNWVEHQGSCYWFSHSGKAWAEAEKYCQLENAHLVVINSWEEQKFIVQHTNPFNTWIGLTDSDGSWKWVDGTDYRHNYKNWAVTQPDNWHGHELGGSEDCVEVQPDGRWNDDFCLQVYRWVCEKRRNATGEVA
Method: Human IgG (Sigma-Aldrich, 14506) was covalently labeled with Alexa Fluor 488 using the Alexa Fluor™ 488 Protein Labeling Kit (Thermo Fisher, A10235) following the manufacturer's instructions. HepG2 cells (ATCC, HB-8065) were cultured to about 70% confluence and harvested by trypsinization. Single cell suspensions of HepG2 cells were plated in 96 well plates at 1×10^5 cells/well in cell culture media (DMEM supplemented with 10% FBS) and placed at 4° C. For studies using human IgG, cells were incubated with 100 nM AF488-labeled anti-human IgG and serial dilutions of IgG-based degrader for 1 hour at 4° C. For studies using DNP, cells were incubated with 100 nM AF488-labeled polyclonal rabbit anti-dinitrophenyl (DNP) antibodies (ThermoFisher) and serial dilutions of DNP-based degrader for 1 hour at 4° C. After washing once with ice-cold PBS containing 0.1% BSA and 0.1% sodium azide, cells were resuspended in 150 uL PBS+0.1% BSA and cell-associated AF488 fluorescence was measured by flow cytometry using the iQue® Screener PLUS Flow Cytometer (IntelliCyt). […]

[2] = second table, read-out: ASGPR KD
[3] = 100 nM AF488-labeled antibody, 1 hour at 4° C., the 25th table, class symbols, read-out: TCF EC50
[4] = read-out: TCF EC50, 100 nM AF488-labeled antibody, 1 hour at 4° C., the 25th table, class symbols

Compound | Kd (IgG) [nM] | Kd (ASGPR; [2]) [nM] | EC50 [1, 3] [nM] | also measured
CC(C)C[C@@H]1NC(=O)[C@H](Cc2cnc[nH]2)NC(=O)[C@H](Cc2c[nH]c3ccccc23)NC(=O)[C@H](C)NC(=O)[C@@H]2CSSC[C@H](NC(=O)[C@H](Cc3c[nH]c4ccccc34)NC(=O)[C@H](C(C)C)NC(=O)[C@H](CC(C)C)NC(=O)[C@H](CCC(=O)O)NC(=O)CNC1=O)C(=O)N[C@@H]([C@@H](C)O)C(=O)N1CCC[C@@H]1C(=O)N1C[C@@H](NC(=O)c3ccc4c(c3)C(=O)c3cc(C(=O)NC[C@H]5OC[C@H](Nc6cncc(C(F)(F)F)n6)[C@@H](O)[C@H]5O)ccc3-4)C[C@H]1C(=O)N[C@@H](CC(=O)O)C(=O)N2 [compound 40] | < 100 | – | – | EC50 (HepG2 cells; Homo sapiens, class symbols): 100 to 500 nM
CC(C)CC1NC(=O)C(Cc2cnc[nH]2)NC(=O)C(Cc2c[nH]c3ccccc23)NC(=O)C(C)NC(=O)C2CSSCC(NC(=O)C(Cc3c[nH]c4ccccc34)NC(=O)C(C(C)C)NC(=O)C(CC(C)C)NC(=O)C(CCC(=O)O)NC(=O)CNC1=O)C(=O)NC(C(C)O)C(=O)N1CCCC1C(=O)N1CC(NC(=O)CCCc3cn(CCCCCC(=O)NC(COCCC(=O)NCCOCC4OCC(Nc5nccc(C(F)(F)F)n5)C(O)C4O)COCCC(=O)NCCOCC4OCC(Nc5nccc(C(F)(F)F)n5)C(O)C4O)nn3)CC1C(=O)NC(CC(=O)O)C(=O)N2 (stereo not drawn) [compound 76] | < 100 | < 100 | < 100 | –
CC(C)CC1NC(=O)C(Cc2cnc[nH]2)NC(=O)C(Cc2c[nH]c3ccccc23)NC(=O)C(C)NC(=O)C2CSSCC(NC(=O)C(Cc3c[nH]c4ccccc34)NC(=O)C(C(C)C)NC(=O)C(CC(C)C)NC(=O)C(CCC(=O)O)NC(=O)CNC1=O)C(=O)NC(C(C)O)C(=O)N1CCCC1C(=O)N1CC(NC(=O)CCCc3cn(CC4OCC(Nc5cncc(C(F)(F)F)n5)C(O)C4O)nn3)CC1C(=O)NC(CC(=O)O)C(=O)N2 (stereo not drawn) [compound 78] | < 100 | < 100 | – | EC50 [1, 4]: < 100 nM
COC1O[C@H](Cn2cc(CCCC(=O)N[C@H]3C[C@H]4C(=O)N[C@@H](CC(=O)O)C(=O)N[C@H]5CSSC[C@H](NC(=O)[C@H](Cc6c[nH]c7ccccc67)NC(=O)[C@H](C(C)C)NC(=O)[C@H](CC(C)C)NC(=O)[C@H](CCC(=O)O)NC(=O)CNC(=O)[C@H](CC(C)C)NC(=O)[C@H](Cc6cnc[nH]6)NC(=O)[C@H](Cc6c[nH]c7ccccc67)NC(=O)[C@H](C)NC5=O)C(=O)N[C@@H]([C@@H](C)O)C(=O)N5CCC[C@@H]5C(=O)N4C3)nn2)[C@H](O)[C@H](O)[C@H]1NC(C)=O (stereo partly drawn) [compound 80] | – | – | – | EC50 (HepG2 cells; Homo sapiens, numeric bounds, nM from footnote): > 10000 nM; EC50 ([1]; 100 nM AF488-labeled antibody, 1 hour at 4° C., the 25th table, numeric bounds, nM from footnote, read-out: TCF EC50): > 4360 nM
CC(C)CC1NC(=O)C(Cc2cnc[nH]2)NC(=O)C(Cc2c[nH]c3ccccc23)NC(=O)C(C)NC(=O)C2CSSCC(NC(=O)C(Cc3c[nH]c4ccccc34)NC(=O)C(C(C)C)NC(=O)C(CC(C)C)NC(=O)C(CCC(=O)O)NC(=O)CNC1=O)C(=O)NC(C(C)O)C(=O)N1CCCC1C(=O)N1CC(NC(=O)CCOCCOCCOCCOCCNC(=O)CCCc3cn(CCCCCC(=O)NC(COCCC(=O)NCCOCCOCCOCCOCC4OCC(Nc5cncc(C(F)(F)F)n5)C(O)C4O)COCCC(=O)NCCOCCOCCOCCOCC4OCC(Nc5cncc(C(F)(F)F)n5)C(O)C4O)nn3)CC1C(=O)NC(CC(=O)O)C(=O)N2 (stereo not drawn) [compound 82] | < 100 | < 100 | < 100 | –
CC(C)C[C@@H]1NC(=O)[C@H](Cc2cnc[nH]2)NC(=O)[C@H](Cc2c[nH]c3ccccc23)NC(=O)[C@H](C)NC(=O)[C@@H]2CSSC[C@H](NC(=O)[C@H](Cc3c[nH]c4ccccc34)NC(=O)[C@H](C(C)C)NC(=O)[C@H](CC(C)C)NC(=O)[C@H](CCC(=O)O)NC(=O)CNC1=O)C(=O)N[C@@H]([C@@H](C)O)C(=O)N1CCC[C@@H]1C(=O)N1C[C@@H](NC(=O)CCOCCOCCOCCOCCNC(=O)CCCc3cn(CCCCCC(=O)NC(COCCC(=O)NCCO[C@@H]4O[C@H](CO)[C@H](O)[C@H](O)[C@H]4Nc4cncc(C(F)(F)F)n4)COCCC(=O)NCCO[C@@H]4O[C@H](CO)[C@H](O)[C@H](O)[C@H]4Nc4cncc(C(F)(F)F)n4)nn3)C[C@H]1C(=O)N[C@@H](CC(=O)O)C(=O)N2 [compound 84] | – | – | < 100 | EC50 (HepG2 cells; class symbols): < 100 nM
CC(=O)NC1C(OCCOCCOCCOCCNC(=O)CCOCC(COCCC(=O)NCCOCCOCCOCCOC2OC(CO)C(O)C(O)C2NC(C)=O)(COCCC(=O)NCCOCCOCCOCCOC2OC(CO)C(O)C(O)C2NC(C)=O)NC(=O)CCCCCn2cc(CCCC(=O)NCCOCCOCCOCCOCCC(=O)NC3CC4C(=O)NC(CC(=O)O)C(=O)NC5CSSCC(NC(=O)C(Cc6c[nH]c7ccccc67)NC(=O)C(C(C)C)NC(=O)C(CC(C)C)NC(=O)C(CCC(=O)O)NC(=O)CNC(=O)C(CC(C)C)NC(=O)C(Cc6cnc[nH]6)NC(=O)C(Cc6c[nH]c7ccccc67)NC(=O)C(C)NC5=O)C(=O)NC(C(C)O)C(=O)N5CCCC5C(=O)N4C3)nn2)OC(CO)C(O)C1O (stereo not drawn) [compound 87] | < 100 | – | – | Kd (ASGPR; read-out: ASGPR KD, second table): > 1000 nM; EC50 [1, 4]: > 1000 nM
CC(C)CC1NC(=O)C(Cc2cnc[nH]2)NC(=O)C(Cc2c[nH]c3ccccc23)NC(=O)C(C)NC(=O)C2CSSCC(NC(=O)C(Cc3c[nH]c4ccccc34)NC(=O)C(C(C)C)NC(=O)C(CC(C)C)NC(=O)C(CCC(=O)O)NC(=O)CNC1=O)C(=O)NC(C(C)O)C(=O)N1CCCC1C(=O)N1CC(NC(=O)CCOCCOCCOCCOCCNC(=O)CCCc3cn(CCCCCC(=O)NC(COCCC(=O)NCCOCCOCCOCCOCC4OCC(Nc5nccc(C(F)(F)F)n5)C(O)C4O)(COCCC(=O)NCCOCCOCCOCCOCC4OCC(Nc5nccc(C(F)(F)F)n5)C(O)C4O)COCCC(=O)NCCOCCOCCOCCOCC4OCC(Nc5nccc(C(F)(F)F)n5)C(O)C4O)nn3)CC1C(=O)NC(CC(=O)O)C(=O)N2 (stereo not drawn) [compound 88] | < 100 | < 100 | < 100 | –
CC(C)C[C@@H]1NC(=O)[C@H](Cc2cnc[nH]2)NC(=O)[C@H](Cc2c[nH]c3ccccc23)NC(=O)[C@H](C)NC(=O)[C@@H]2CSSC[C@H](NC(=O)[C@H](Cc3c[nH]c4ccccc34)NC(=O)[C@H](C(C)C)NC(=O)[C@H](CC(C)C)NC(=O)[C@H](CCC(=O)O)NC(=O)CNC1=O)C(=O)N[C@@H]([C@@H](C)O)C(=O)N1CCC[C@@H]1C(=O)N1C[C@H](NC(=O)COCCOCC(=O)NC[C@H]3OC[C@H](Nc4cncc(C(F)(F)F)n4)[C@@H](O)[C@H]3O)C[C@H]1C(=O)N[C@@H](CC(=O)O)C(=O)N2 [compound 96] | < 100 | < 100 | – | EC50 (HepG2 cells; Homo sapiens, class symbols): < 100 nM
